# Earlier results in article PMC2765482 (Journal of medicinal chemistry, 2009).
# Marks after values point to notes of the source that are not given here.
# Assays:
# [1] = versus vancomycin; ref [11]
# [2] = system: Staphylococcus aureus strain ATCC 25923 (vancomycin-sensitive); conditions: vancomycin-sensitive strain ATCC 25923; ref [18b] (text: ref [4],[18])
# [3] = system: N,N′-Ac2-L-Lys-D-Ala-D-Lac (3); conditions: for Association Constants 3 (Ka): ligand N,N′-Ac2-L-Lys-D-Ala-D-Lac, ref [4]
# [4] = system: N,N′-Ac2-L-Lys-D-Ala-D-Ala (2); conditions: ligand N,N′-Ac2-L-Lys-D-Ala-D-Ala; ref [4]
# [5] = system: Enterococcus faecalis strain BM4166 (vancomycin-resistant, VanA); conditions: ref [18b]
# [6] = system: vancomycin-sensitive bacteria and vancomycin-resistant Enterococci (VRE); conditions: against vancomycin-sensitive bacteria and VRE; ref [9]
# [7] = system: Enterocococci bacterial strains, VanA and VanB; conditions: VanA and VanB resistant versus sensitive; ref [1d,k]
Substance,enhancement of antimicrobial properties [1],MIC S. aureus [2],Association Constants 3 (Ka) [3],Association Constants 2 (Ka) [4],MIC E. faecalis [5],more active than vancomycin [6],drop in antimicrobial activity [7],"reduction of affinity for the ligand on D-Ala to D-Lac modification (NH→O) ([3]; D-Ala-D-Lac versus D-Ala-D-Ala ligand, ref [1d,k])"
N-demethylvancomycin,2 fold,,,,,,,
vancomycin aglycon [Compound 5],,0.625 ^e µg/mL,1.2 ^f ×10^2 M^−1,1.7 ^f ×10^5 M^−1,640 ^e µg/mL,,,
Chlorobiphenyl vancomycin,,,,,,ca. 100 fold,,
Vancomycin [Compound 1],,1.25 ^e µg/mL,1.8 ^f ×10^2 M^−1,2.0 ^f ×10^5 M^−1,2000 ^e µg/mL,,1000 fold,1000 fold
